Assay results from patent US20260335282A1, “NOVEL 3-ARYLIDENE-2-INDOLINONE DERIVATIVES FOR THERAPEUTIC USE” (ISTANBUL UNIVERSITESI REKTORLUGU, priority 2022, published 2026).
Where two headings read alike, the source gives them in different places.

Tests used:
Assay type in all cases: cell-based, human
[1] = tested on: MIAPaCa-2 cells; assay: Apoptosis/necrosis detection, Annexin V/PI flow cytometry, MiaPaca-2; details: for necrosis compared to control: MiaPaca-2; for apoptosis (early and late) compared to control: MiaPaca-2, IC50 values
Description: (§1) After incubation with 2-indolinone compounds (IC50 μM concentration; 48 and/or 72 hours), cells are washed twice with PBS and the cell pellet is suspended in Annexin V binding buffer. After this incubation, cells are incubated with FITC-conjugated Annexin V and propidium iodine staining solution for 15 minutes in the dark and at room temperature. Then, cells are analyzed by flow cytometry (Beckman coulter, Navios) (Wlodkowic, D., Skommer, J, Darzynkiewicz, Z. 2009. Flow cytometry-based apoptosis detection, Methods Mol Biol., 559, 1-14).

[2] = tested on: HCT-116 cells; assay: MTT cytotoxicity, colon cancer cells HCT-116
Summary of the method: (§2)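 Cells were seeded at 5000 per well and treated next day with compound at 0.1, 1, 5 and 10 μM (final) for 48 and/or 72 h, with matched DMSO controls. MTT was added for 4 h and formazan was dissolved in DMSO and read at 570/630 nm. % viability against control gave IC50 from dose-response curves.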

[3] = tested on: MDA-MB-231 cells; assay: MTT cytotoxicity, breast cancer cells MDA-MB-231; details: MTT, no * mark (incubation time not given)
Summary of the method: (§3)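 Read-out is MTT formazan absorbance at 570 nm with 630 nm reference, after 4 h with 5 mg/ml MTT and DMSO solubilisation. Treatment at 0.1, 1, 5 and 10 μM lasted 48 and/or 72 h; viability is relative to DMSO-matched controls, and IC50 values derive from dose-response curves.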

[4] = tested on: HT-29 cells; assay: MTT cytotoxicity, colon cancer cells HT-29; details: MTT
Summary of the method: as §2

[5] = tested on: A498 cells; assay: MTT cytotoxicity, kidney cancer cells A498; details: for selectivity index: MCF-10F/Beas2b vs A498
Summary of the method: as §3

[6] = tested on: pancreas and kidney cancer cells; assay: Apoptosis detection, Annexin V/PI flow cytometry, pancreas and kidney cancer cells
Description: as §1
Whether the 2-indolinone derivatives (5) with the highest selectivity index and general TKI activity stimulated apoptosis and necrosis is determined by Annexin V and propidium iodine staining in pancreas and kidney cancer cells. Annexin V/PI flow cytometry apoptosis values of the tested compounds Y1, Y2, Y3, Y4, Y8 and Y14 are found to be 40% and above in correlation with MTT results. The apoptosis rates of the control groups and the substances are analyzed by t test in GraphPad version 9.0.

[7] = tested on: MCF-7 cells; assay: MTT cytotoxicity, breast cancer cells MCF-7; details: MTT
Summary of the method: as §3

[8] = no * mark (incubation time not specified)
[9] = read-out: IC50, MDA-MB-231 (breast)
[10] = MTT, no * mark (incubation time not specified)

Structure (SMILES)	necrosis compared to control [1]	apoptosis (early and late) compared to control [1]	IC50 [2, 8] [µM]	IC50 [3, 9] [µM]	IC50 [4, 8] [µM]	IC50 [5, 10] [µM]	Annexin V/PI flow cytometry apoptosis values [6] [%]	IC50 [7, 8] [µM]	IC50 ([2]; Homo sapiens, HCT-116, no * mark (incubation time not given)) [µM]	IC50 ([3]; Homo sapiens, MDA-MB-231, read-out: IC50, MDA-MB-231 (breast)) [µM]	IC50 ([4]; Homo sapiens, HT-29, no * mark (incubation time not given)) [µM]	IC50 ([5]; Homo sapiens, A498, MTT, no * mark (incubation time not given)) [µM]	selectivity index [5]	IC50 ([7]; Homo sapiens, MCF7, no * mark (incubation time not given)) [µM]
O=C1/C(=C\c2c[nH]c3ccccc23)c2ccccc2N1Cc1ccccc1 [Y1]	did not cause necrosis	increase in apoptosis at IC50 values was statistically significant	2.64	9.82	1.81	4.11	≥ 40	6.34						
Cc1ccc2c(c1)/C(=C/c1c[nH]c3ccccc13)C(=O)N2Cc1ccccc1 [Y3]	did not cause necrosis	increase in apoptosis at IC50 values was statistically significant					≥ 40		2.05	3.57	2.43	0.87	> 11	4.75
Cc1ccc2c(c1)/C(=C/c1c[nH]c3ccccc13)C(=O)N2Cc1cccc(F)c1 [Y8]	did not cause necrosis	increase in apoptosis at IC50 values was statistically significant	1.21	7.36	5	0.93	≥ 40	5.79					> 11	
O=C1/C(=C\c2c[nH]c3ccccc23)c2cc(OC(F)(F)F)ccc2N1Cc1ccccc1 [Y4]	did not cause necrosis	increase in apoptosis at IC50 values was statistically significant	0.57	> 10	1.75	4.23	≥ 40	> 10						
